Source: patent US20250114338A1, “TETRAHYDRO-PYRIDO[3,4-b]INDOLE ESTROGEN RECEPTOR MODULATORS AND USES THEREOF” (Genentech, Inc., priority 2014, published 2025)

The compounds below were run on ER-alpha MCF7 (assay: ER-alpha MCF7 HCS EC50; stated as measured by in vitro cell proliferation assays of Examples 902 and 903). Settings: Homo sapiens, MCF7, MCF7 cells; Table 2.
Assay type: cell-based
Procedure, shortened: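 MCF7 cells seeded 1000-2000 cells/well for 16 h, then treated with nine-point 1:2 DMSO dilution series in quadruplicate at 37 °C, 5% CO2 for 4 days. Viable cells quantified by CellTiter-Glo ATP luminescence; EC50 calculated. Controls: fulvestrant at final 100 nM, DMSO 0.2% v/v.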

EC50 [nM]	Structure (SMILES)
0.23	C[C@@H]1Cc2c([nH]c3ccccc23)[C@@H](c2c(F)cc(OCCN3CC(CF)C3)cc2F)N1C[C@H](F)CO [Example 394, (S)-3-((1R,3R)-1-(2,6-difluoro-4-(2-(3-(fluoromethyl)azetidin-1-yl)ethoxy)phenyl)-3-methyl-3,4-dihydro-1H-pyrido[3,4-b]indol-2(9H)-yl)-2-fluoropropan-1-ol]
0.053	C[C@@H]1Cc2c([nH]c3ccccc23)[C@@H](c2c(F)cc(OCCN3CC(CF)C3)cc2F)N1C[C@@H](F)CO [Example 395, (R)-3-((1R,3R)-1-(2,6-difluoro-4-(2-(3-(fluoromethyl)azetidin-1-yl)ethoxy)phenyl)-3-methyl-3,4-dihydro-1H-pyrido[3,4-b]indol-2(9H)-yl)-2-fluoropropan-1-ol]
0.11	C[C@@H]1Cc2c([nH]c3cc(F)ccc23)[C@@H](c2c(F)cc(NC3CN(CCCF)C3)cc2F)N1CC(F)(F)F [Example 396, N-(3,5-difluoro-4-((1R,3R)-7-fluoro-3-methyl-2-(2,2,2-trifluoroethyl)-2,3,4,9-tetrahydro-1H-pyrido[3,4-b]indol-1-yl)phenyl)-1-(3-fluoropropyl)azetidin-3-amine]
33	C[C@H]1Cc2c([nH]c3cc(F)ccc23)[C@H](c2c(F)cc(NC3CN(CCCF)C3)cc2F)N1CC(F)(F)F [Example 397, N-(3,5-difluoro-4-((1S,3S)-7-fluoro-3-methyl-2-(2,2,2-trifluoroethyl)-2,3,4,9-tetrahydro-1H-pyrido[3,4-b]indol-1-yl)phenyl)-1-(3-fluoropropyl)azetidin-3-amine]
0.11	C[C@@H]1Cc2c([nH]c3cccc(F)c23)[C@@H](c2c(F)cc(NC3CN(CCCF)C3)cc2F)N1C[C@](C)(F)CO [Example 398, (S)-3-((1R,3R)-1-(2,6-difluoro-4-((1-(3-fluoropropyl)azetidin-3-yl)amino)phenyl)-5-fluoro-3-methyl-3,4-dihydro-1H-pyrido[3,4-b]indol-2(9H)-yl)-2-fluoro-2-methylpropan-1-ol]
1.1	C[C@H]1Cc2c([nH]c3cccc(F)c23)[C@H](c2c(F)cc(NC3CN(CCCF)C3)cc2F)N1C[C@@](C)(F)CO [Example 399, (R)-3-((1S,3S)-1-(2,6-difluoro-4-((1-(3-fluoropropyl)azetidin-3-yl)amino)phenyl)-5-fluoro-3-methyl-3,4-dihydro-1H-pyrido[3,4-b]indol-2(9H)-yl)-2-fluoro-2-methylpropan-1-ol]
0.023	C[C@@H]1Cc2c([nH]c3cccc(F)c23)[C@@H](c2c(F)cc(NC3CN(CCCF)C3)cc2F)N1C[C@@](C)(F)CO [Example 400, (R)-3-((1R,3R)-1-(2,6-difluoro-4-((1-(3-fluoropropyl)azetidin-3-yl)amino)phenyl)-5-fluoro-3-methyl-3,4-dihydro-1H-pyrido[3,4-b]indol-2(9H)-yl)-2-fluoro-2-methylpropan-1-ol]
2.4	C[C@H]1Cc2c([nH]c3cccc(F)c23)[C@H](c2c(F)cc(NC3CN(CCCF)C3)cc2F)N1C[C@](C)(F)CO [Example 401, (S)-3-((1S,3S)-1-(2,6-difluoro-4-((1-(3-fluoropropyl)azetidin-3-yl)amino)phenyl)-5-fluoro-3-methyl-3,4-dihydro-1H-pyrido[3,4-b]indol-2(9H)-yl)-2-fluoro-2-methylpropan-1-ol]
0.032	C[C@@H]1Cc2c([nH]c3ccccc23)[C@@H](c2c(F)cc(OCCN3CC(CF)C3)cc2F)N1C[C@H](CO)CF [Example 402, (R)-3-((1R,3R)-1-(2,6-difluoro-4-(2-(3-(fluoromethyl)azetidin-1-yl)ethoxy)phenyl)-3-methyl-3,4-dihydro-1H-pyrido[3,4-b]indol-2(9H)-yl)-2-(fluoromethyl)propan-1-ol]
0.13	C[C@@H]1Cc2c([nH]c3ccccc23)[C@@H](c2c(F)cc(OCCN3CC(CF)C3)cc2F)N1C[C@@H](CO)CF [Example 403, (S)-3-((1R,3R)-1-(2,6-difluoro-4-(2-(3-(fluoromethyl)azetidin-1-yl)ethoxy)phenyl)-3-methyl-3,4-dihydro-1H-pyrido[3,4-b]indol-2(9H)-yl)-2-(fluoromethyl)propan-1-ol]
0.745	C[C@@H]1Cc2c([nH]c3ccccc23)[C@@H](c2c(F)cc(N(C)C3CN(CCCF)C3)cc2F)N1CC(C)(C)F [Example 404, N-(3,5-difluoro-4-((1R,3R)-2-(2-fluoro-2-methylpropyl)-3-methyl-2,3,4,9-tetrahydro-1H-pyrido[3,4-b]indol-1-yl)phenyl)-1-(3-fluoropropyl)-N-methylazetidin-3-amine]
0.23	CC1(C)Cc2c([nH]c3ccccc23)[C@@H](c2c(F)cc(NC3CN(CCCF)C3)cc2F)N1CC(F)F [Example 405, (R)-N-(4-(2-(2,2-difluoroethyl)-3,3-dimethyl-2,3,4,9-tetrahydro-1H-pyrido[3,4-b]indol-1-yl)-3,5-difluorophenyl)-1-(3-fluoropropyl)azetidin-3-amine]

The remaining lines, values behind:

Structure (SMILES)	EC50 [nM]
C[C@@H]1Cc2c([nH]c3ccccc23)[C@@H](c2ccc([C@H](O)C3CN(CCCF)C3)cc2)N1CC(C)(C)F [Example 381, (R)-(4-((1R,3R)-2-(2-fluoro-2-methylpropyl)-3-methyl-2,3,4,9-tetrahydro-1H-pyrido [3,4-b]indol-1-yl)phenyl)(1-(3-fluoropropyl)azetidin-3-yl)methanol]	0.605
C[C@@H]1Cc2c([nH]c3ccccc23)[C@@H](c2c(F)cc(NC3CN(CCCF)C3)cc2F)N1CC(C)(C)C(=O)O [Example 382, 3-((1R,3R)-1-(2,6-difluoro-4-((1-(3-fluoropropyl)azetidin-3-yl)amino)phenyl)-3-methyl-1,3,4,9-tetrahydro-2H-pyrido[3,4-b]indol-2-yl)-2,2-dimethylpropanoic acid]	1.01
C[C@@H]1Cc2c([nH]c3ccc(F)cc23)[C@@H](c2c(F)cc(OCCN3CC(CF)C3)cc2F)N1CC(F)F [Example 383, (1R,3R)-1-(2,6-difluoro-4-(2-(3-(fluoromethyl)azetidin-1-yl)ethoxy)phenyl)-2-(2,2-difluoroethyl)-6-fluoro-3-methyl-2,3,4,9-tetrahydro-1H-pyrido[3,4-b]indole]	0.28
C[C@H]1Cc2c([nH]c3ccc(F)cc23)[C@H](c2c(F)cc(OCCN3CC(CF)C3)cc2F)N1CC(F)F [Example 384, (1S,3S)-1-(2,6-difluoro-4-(2-(3-(fluoromethyl)azetidin-1-yl)ethoxy)phenyl)-2-(2,2-difluoroethyl)-6-fluoro-3-methyl-2,3,4,9-tetrahydro-1H-pyrido[3,4-b]indole]	29
C[C@@H]1Cc2c([nH]c3ccc(F)cc23)[C@@H](c2c(F)cc(OC3CN(CCCF)C3)cc2F)N1CC(F)F [Example 385, (1R,3R)-1-(2,6-difluoro-4-((1-(3-fluoropropyl)azetidin-3-yl)oxy)phenyl)-2-(2,2-difluoroethyl)-6-fluoro-3-methyl-2,3,4,9-tetrahydro-1H-pyrido[3,4-b]indole]	0.074
C[C@H]1Cc2c([nH]c3ccc(F)cc23)[C@H](c2c(F)cc(OC3CN(CCCF)C3)cc2F)N1CC(F)F [Example 386, (1S,3S)-1-(2,6-difluoro-4-((1-(3-fluoropropyl)azetidin-3-yl)oxy)phenyl)-2-(2,2-difluoroethyl)-6-fluoro-3-methyl-2,3,4,9-tetrahydro-1H-pyrido[3,4-b]indole]	23
C[C@@H]1Cc2c([nH]c3ccc(F)cc23)[C@@H](c2c(F)cc(NC3CN(CCCF)C3)cc2F)N1S(C)(=O)=O [Example 387, N-(3,5-difluoro-4-((1R,3R)-6-fluoro-3-methyl-2-(methylsulfonyl)-2,3,4,9-tetrahydro-1H-pyrido[3,4-b]indol-1-yl)phenyl)-1-(3-fluoropropyl)azetidin-3-amine]	0.149
C[C@H]1Cc2c([nH]c3ccc(F)cc23)[C@H](c2c(F)cc(NC3CN(CCCF)C3)cc2F)N1S(C)(=O)=O [Example 388, N-(3,5-difluoro-4-((1S,3S)-6-fluoro-3-methyl-2-(methylsulfonyl)-2,3,4,9-tetrahydro-1H-pyrido[3,4-b]indol-1-yl)phenyl)-1-(3-fluoropropyl)azetidin-3-amine]	19
C[C@@H]1Cc2c([nH]c3ccc(F)cc23)[C@@H](c2c(F)cc(NC3CN(CCCF)C3)cc2F)N1CC(F)F [Example 389, N-(4-((1R,3R)-2-(2,2-difluoroethyl)-6-fluoro-3-methyl-2,3,4,9-tetrahydro-1H-pyrido[3,4-b]indol-1-yl)-3,5-difluorophenyl)-1-(3-fluoropropyl)azetidin-3-amine]	0.056
C[C@H]1Cc2c([nH]c3ccc(F)cc23)[C@H](c2c(F)cc(NC3CN(CCCF)C3)cc2F)N1CC(F)F [Example 390, N-(4-((1S,3S)-2-(2,2-difluoroethyl)-6-fluoro-3-methyl-2,3,4,9-tetrahydro-1H-pyrido[3,4-b]indol-1-yl)-3,5-difluorophenyl)-1-(3-fluoropropyl)azetidin-3-amine]	9.7
C[C@@H]1Cc2c([nH]c3ccccc23)[C@@H](c2c(F)cc(OC3CN(CCCF)C3)cc2F)N1CC1(F)CCC1 [Example 393, (1R,3R)-1-(2,6-difluoro-4-((1-(3-fluoropropyl)azetidin-3-yl)oxy)phenyl)-2-((1-fluorocyclobutyl)methyl)-3-methyl-2,3,4,9-tetrahydro-1H-pyrido[3,4-b]indole]	0.142

Same assay, conditions: MCF7 cells; Table 2

EC50 [nM]	Structure (SMILES)
0.15	C[C@@H]1Cc2c([nH]c3ccccc23)[C@@H](c2c(F)cc(OC3CN(C4CC(CF)C4)C3)cc2F)N1CC(C)(C)F (stereo partly drawn) [Example 391, (1R,3R)-1-(2,6-difluoro-4-((1- cis-(3-(fluoromethyl)cyclobutyl)azetidin-3-yl)oxy)phenyl)-2-(2-fluoro-2-methylpropyl)-3-methyl-2,3,4,9-tetrahydro-1H-pyrido[3,4-b]indole]
0.44	C[C@@H]1Cc2c([nH]c3ccccc23)[C@@H](c2c(F)cc(OC3CN(C4CC(CF)C4)C3)cc2F)N1CC(C)(C)F (stereo partly drawn) [Example 392, (1R,3R)-1-(2,6-difluoro-4-((1- trans-(3-(fluoromethyl)cyclobutyl)azetidin-3-yl)oxy)phenyl)-2-(2-fluoro-2-methylpropyl)-3-methyl-2,3,4,9-tetrahydro-1H-pyrido[3,4-b]indole]
